Like-named read-outs stand apart in the source and are kept apart here.
What was measured:
[1] = system: patients expressing HLA risk alleles; conditions: cited from earlier work
sHLA-B*57:01 [2] = target: T1, sHLA-B*57:01 (Homo sapiens, UniProt P01889); test: HLA-B*57:01 fluorescence polarization competition peptide-binding assay; conditions: competition with LF9FITC; for affinity for HLA-B*57:01 (in words): fluorescence polarization, no abacavir
sHLA-B*57:01 [3] = target: T1, sHLA-B*57:01; test: Drug effect on LF9FITC peptide binding to sHLA-B*57:01
HLA-B*57:01 = assay type: cell-based, human; conditions: abacavir-treated cells
CD8+ T cells = conditions: abacavir hypersensitivity; ref [14]; cited from earlier work
[4] = target: Soluble HLA-B*57:01 (human | human (endogenous in 721.221)); test: fluorescence polarisation

Cc1onc(-c2c(F)cccc2Cl)c1C(=O)N[C@@H]1C(=O)N2[C@@H]1SC(C)(C)[C@@H]2C(=O)O [flucloxacillin]
HLA-associated drug reaction ([1]; liver injury, HLA-B*57:01, ref [8]): causes drug-induced liver injury in patients expressing HLA-B*57:01

NC(=O)N1c2ccccc2C=Cc2ccccc21 [carbamazepine]
HLA-associated drug reaction ([1]; severe cutaneous adverse reactions, HLA-B*15:02 [4], B*15:11 [5], A*31:01 [6], ref [4]–[6]): Severe cutaneous adverse reactions associated with class I HLA

STIRLLTSL
affinity for HLA-B*57:01 (in words) (sHLA-B*57:01 [2]): could strongly compete in the HLA-B*57:01 peptide-binding assay (Fig. 4a and b), with logIC50 values consistent with high-affinity binding
effect of abacavir on IC50 / inhibition by competitor peptide (sHLA-B*57:01 [2]; presence vs absence of 200 μmol/l abacavir): No significant difference in inhibition

Oc1ncnc2[nH]ncc12 [allopurinol]
HLA-associated drug reaction ([1]; severe cutaneous adverse reactions, HLA-B*58:01, ref [7]): Severe cutaneous adverse reactions associated with class I HLA

LSSPVTKSF [LF9]
affinity for HLA-B*57:01 (in words) (sHLA-B*57:01 [2]): consistent with high-affinity binding

Nc1nc(NC2CC2)c2ncn([C@H]3C=C[C@@H](CO)C3)c2n1 [Abacavir, abacavir]
LF9FITC reference binding signal in competition experiment (sHLA-B*57:01 [3]; 200 μmol/l abacavir, in presence of competitor peptide HSL or STIR): expected increase in reference LF9FITC peptide binding signal with abacavir
concentration at which the increase in LF9FITC binding starts (sHLA-B*57:01 [3]; fluorescence polarization at equilibrium): 10 µmol/L
covalent drug-peptide adducts in peptide fractions (HLA-B*57:01): we have not, as yet, identified covalent drug–peptide adducts in the peptide fractions
tolerance of abacavir in HLA-B*57:01 individuals ([1]; HLA-B*57:01 individuals, ref (1)): Many HLA-B*57:01 individuals are able to tolerate abacavir and not show hypersensitivity
HLA-associated drug reaction ([1]; drug hypersensitivity, HLA-B*57:01, ref [1]–[3]): linked to HLA-B*57:01
requirements of CD8+ T-cell response (CD8+ T cells): CD8^+ T-cell responses require transporter of antigen presentation (TAP)/tapasin expression, antigen processing and specific amino acids in the F pocket of HLA-B*57:01

LSSPVTKSF [LF9 (…)]
log IC50 [4]: 2.6
